PMC10387993, “New pyrimidine-N-β-D-glucosides: synthesis, biological evaluation, and molecular docking investigations” (Turkish Journal of Chemistry, 2023)
In brackets after ≈: the same amount, converted by molar mass. Like-named read-outs stand apart in the source and are kept apart here.

Experiments:
[1] = LDH cytotoxic activity assay, C6; type: cell-based; conditions: rat, C6 glioma cells, C6, 25 μg/mL
Experimental: (§1) The cell lines were cultured in a cell medium (Dulbecco’s modified eagle’s or RPMI 1640) enriched with 10% (v/v) fetal bovine serum and 2% (v/v) Penicillin-Streptomycin (10,000 U/mL). First, old medium was removed out of the flask when the cells reached approximately 80% confluence. Next, cells were taken from the flasks surface using trypsin-EDTA solution and then subjected to centrifugation. Following, the cell pellet was suspended with fresh media and was inoculated into wells.
(§2) Approximately 5 × 10^3 cells in 100 μL were placed into 96-well plates as triplicates and treated with 25, 50, 75, and 100 μg/mL concentrations of test compounds at 37 °C with 5% CO2 for 24 h. LDH activity was obtained by determining absorbance at 492–630 nm using a microplate reader.

[2] = test system: calf thymus DNA (CT-DNA); conditions: CT-DNA binding experiments in the literature ref [32]–[33]; cited from earlier work
[3] = LDH cytotoxic activity assay, HT29; type: cell-based; conditions: human, HT29 cells, HT29, 25 μg/mL
Experimental: as §1, §2

[4] = test system: HeLa; test: cells; type: cell-based; conditions: MTT
Experimental: as §1
(§3) A cell suspension containing approximately 1 × 10^4 cells in 100 μL was seeded into the wells of 96-well culture plates. […]. The final volume of the wells was set to 200 μL by medium. Cell proliferation assay was evaluated by MTT (yellow tetrazolium MTT (3-(4,5-dimethylthiazolyl-2)-2,5-diphenyltetrazolium bromide) methods. Briefly, an MTT stock solution (5 mg of MTT/mL of distilled water) was filtered and kept at −20 °C until use. The cells were exposed to an MTT reagent (consisting of one parts of MTT stock solutions and nine parts of fresh RPMI 1640 without phenol red) for 4 h to form MTT formazan dye followed by the dye dissolved in DMSO with Sorenson’s buffer for 30 min at room temperature and then the plate was measured at 560 nm, with 690 nm as a reference interval, using a microplate reader. Each experiment was repeated at least three times for each cell line.
(§4) IC50 value is a concentration that inhibits half of the cells in vitro. The half maximal inhibitory concentration (IC50) of the test and control compounds was calculated using XLfit5 or excel spreadsheet and represent in μM at 95% confidence intervals. The proliferation assay results were expressed as the percent inhibition according to the following formula: % Inhibition = [1 - (Absorbance of Treatments /Absorbance of DMSO) × 100]. Three dose response parameters (GI50, TGI, LC50) were calculated according to the following formulas using the absorbance measurements of time zero (Tz), control growth (C), and test growth in the presence of drug (Ti). Growth inhibition of 50% (GI50) was calculated from [(Ti-Tz)/(C-Tz)] × 100 = 50, which is the drug concentration resulting in a 50% reduction in the net growth increase in control cells during the drug incubation. The drug concentration resulting in total growth inhibition (TGI) was calculated from Ti = Tz. The LC50 indicating a net loss of cells following treatment was calculated from [(Ti-Tz)/Tz] × 100 = −50.

[5] = test system: Hep3B; test: cells; type: cell-based; conditions: MTT
Experimental: as §1, §3, §4

[6] = test system: HT29; test: cells; type: cell-based; conditions: HT29, MTT
Experimental: as §1, §3, §4

[7] = test system: C6 (Rat brain glioma); test: cells; type: cell-based; conditions: C6, MTT
Experimental: as §1, §3, §4

[8] = test system: MCF7; test: cells; type: cell-based; conditions: MCF7, MTT
Experimental: as §1, §3, §4

[9] = test system: A549; test: cells; type: cell-based; conditions: A549, MTT
Experimental: as §1, §3, §4

[10] = LDH cytotoxic activity assay, Hep3B; type: cell-based; conditions: human, Hep3B cells, 25 μg/mL
Experimental: as §1, §2

[11] = LDH cytotoxic activity assay, MCF7; type: cell-based; conditions: human, MCF7 cells, MCF7, 25 μg/mL
Experimental: as §1, §2

[12] = LDH cytotoxic activity assay, A549; type: cell-based; conditions: human, A549 cells, A549, 25 μg/mL
Experimental: as §1, §2

[13] = LDH cytotoxic activity assay, HeLa; type: cell-based; conditions: human, HeLa cells, 25 μg/mL
Experimental: as §1, §2

[14] = test system: normal FL cells; test: cells; type: cell-based; conditions: FL normal cells, MTT
Experimental: as §1, §3, §4

[15] = LDH cytotoxic activity assay, FL; type: cell-based; conditions: human, FL cells (normal cells), FL, 25 μg/mL
Experimental: as §1, §2

For `O=c1[nH]cc(F)c(=O)[nH]1` [Compound 5FU, 5-fluorouracil, reference compound], the cytotoxicity at 24 h, 25 μg/mL [1] is given as 10%, the “binding constant (Kb)” value [2] is given as 97000 M⁻¹ and the cytotoxicity at 24 h, 25 μg/mL [3] is given as 7.91%. The IC50 ([4]; Homo sapiens, read-out: IC50) was 61.6 µg/mL (≈ 473 µM), the IC50 ([5]; Homo sapiens, read-out: IC50) was 62.9 µg/mL (≈ 483 µM) and the IC50 ([6]; Homo sapiens, HT-29, read-out: IC50) was 65.2 µg/mL (≈ 501 µM). For the same compound, the IC50 ([7]; Rattus norvegicus, read-out: IC50) was 54.3 µg/mL (≈ 417 µM), the IC50 ([8]; Homo sapiens, read-out: IC50) was 74.2 µg/mL (≈ 570 µM) and the IC50 ([9]; Homo sapiens, read-out: IC50) was 69.8 µg/mL (≈ 537 µM). The cytotoxicity at 24 h, 25 μg/mL [10] was 9.67%, the cytotoxicity at 24 h, 25 μg/mL [11] was 7.69% and the cytotoxicity at 24 h, 25 μg/mL [12] was 9.19%. It also gave a cytotoxicity at 24 h, 25 μg/mL [13] of 8.83%, an IC50 ([14]; read-out: IC50) of 59.1 µg/mL (≈ 454 µM) and a cytotoxicity at 24 h, 25 μg/mL [15] of 8.44%.
For `N.N.[Cl][Pt][Cl]` [Cisplatin, cisplatin, reference compound], the “binding constant (Kb)” value [2] is listed as 57300 M⁻¹, the IC50 [4] is listed as 50.29 µg/mL and the IC50 [5] is listed as 48.69 µg/mL. It also gave an IC50 [6] of 40.39 µg/mL, an IC50 [7] of 33.08 µg/mL and an IC50 [8] of 63.79 µg/mL. It also gave an IC50 [9] of 60.49 µg/mL and an IC50 [14] of 52.79 µg/mL.
